Measured values published in patent US4124721A, “Pesticidal unsymmetrical bis-arylcarbamate sulfide compounds containing a 2,3, dehyrobenzofuran group” (priority 1977, dated 1978).
In brackets after ≈: the same amount, converted by molar mass. Where two headings read alike, the source gives them in different places.

Experiments:
Assay type in all cases: in vivo
[1] = system: house flies (Musca domestica, L.); assay: Fly Bait Test; settings: read-out: Housefly LD50
Method: (§1) Suspensions of the test compounds were prepared by dissolving one gram of compound in 50 milliliters of acetone in which had been dissolved 0.1 gram (10 percent of the weight of compound) of an alkylphenoxy polyethoxyethanol surfactant, as an emulsifying or dispersing agent. The resulting solution was mixed into 150 milliliters of water to give roughly 200 milliliters of a suspension containing the compound in finely divided form. The thusprepared stock suspension contained 0.5 percent by weight of compound. The test concentrations in parts per million by weight employed in the tests described hereinbelow were obtained by appropriate dilutions of the stock suspension with water. The test procedures were as follows:
Four to six day old adult house flies (Musca domestica, L.) reared according to the specifications of the Chemical Specialties Manufacturing Association (Blue Book, McNair-Dorland Co., N.Y. 1954; pages 243-244, 261) under controlled conditions of 80°±5° F. and 50±5 percent relative humidity, were the test insects. The flies were immobilized by anesthetizing with carbon dioxide and twenty five immobilized individuals, males and females, were transferred to a cage consisting of a standard food strainer about five inches in diameter which was inverted over a wrapping-paper-covered surface. The test compounds were formulated by diluting the stock suspension with a 10 percent (by weight) sugar solution to give a suspension containing 500 parts of test compound per million parts of final formulation, by weight. Ten milliliters of the test formulation were added to a souffle cup containing a one-inch square of an absorbent cotton pad. This bait cup was introduced and centered on the blotting paper under the food strainer prior to admitting the anesthetized flies. The caged flies were allowed to feed on the bait for 24 hours, at a temperature of 80°±5° F. and the relative humidity of 50±5 percent.
(§2) In these tests the pesticidal activity of the compounds against aphid, mite, Southern Armyworm, Bean Beetle and House Fly was rated as follows:
(§3) Dashes indicate no test conducted.
(§4) The results set forth in TABLE I clearly show the broad spectrum pesticidal activity of the compounds of this invention, as well as their reduced mammalian toxicity. It will be understood that the insect and mite species employed in the above tests are merely representative of a wide variety of pests that can be controlled through the use of the compounds of this invention. A series of comparative tests were conducted to evaluate the relative biological properties of the compounds of the invention and certain prior art compounds. The test procedures employed are identical to those discussed above. The results are reported in the parts per million of the compound required for a 50% kill (LD50).

[2] = peroral toxicity to mammals (rat LD50); settings: rat, in vivo, po, rat
Method: (§5) Certain of these compositions were also evaluated to determine their peroral toxicity to mammals. The animal selected for this experiment was the rat. The test results obtained are expressed in terms of the number of milligrams of compositions per kilogram of weight of the animal required to achieve a mortality rate of 50 percent (LD50).
as §4

[3] = system: southern armyworm (Prodenia eridania, (Cram.)); assay: Southern Armyworm Leaf Spray Test; settings: Spodoptera eridania, read-out: Southern Armyworm LD50
Method: as §1
Southern Armyworm Leaf Spray Test
Larvae of the southern armyworm (Prodenia eridania, (Cram.)), reared on Tendergreen bean plants at a temperature of 80°±5° F. and a relative humidity of 50±5 percent, constituted the test insects.
The test compounds were formulated by diluting the stock suspension with water to given a suspension containing 500 parts of test compound per million parts of final formulation. Potted Tendergreen bean plants of standard height and age were placed on a revolving turntable and sprayed with 100-110 milliliters of test compound formulation by use of a DeVilbiss spray gun set at 10 psig air pressure. This application, which lasted 25 seconds, was sufficient to wet plants to run-off. As a control, 100-110 milliliters of a water-acetone-emulsifier solution containing no test compound were also sprayed on infested plants. When dry, the paired leaves were separated and each one was placed in a 9 centimeter Petri dish lined with moistened filter paper. Five randomly selected larvae were introduced into each dish and the dishes were closed. The closed dishes were labeled and held at 80°-85° F. for three days. Although the larvae could easily consume the whole leaf within 24 hours, no more food was added. Larvae which were unable to move the length of the body, even upon stimulation by prodding, were considered dead. Percent mortality was recorded for various concentration levels.
as §2, §3, §4

[4] = system: bean aphid (Aphis fabae Scop.); assay: Bean Aphid Foliage Spray Test; settings: foliar, read-out: Aphid LD50
Method: as §1
Bean Aphid Foliage Spray Test
Adults and nymphal stages of the bean aphid (Aphis fabae Scop.) reared on potted dwarf nasturtium plants at 65°-70° F. and 50-70 percent relative humidity, constituted the test insects. For testing purposes, the number of aphids per pot was standardized to 100-150 by trimming plants containing excess aphids.
The test compounds were formulated by diluting the stock suspension with water to give a suspension containing 500 parts of test compound per million parts of final formulation.
The potted plants (one pot per compound tested) infested with 100-150 aphids, were placed on a revolving turntable and sprayed with 100-110 milliliters of test compound formulation by use of a DeVilbiss spray gun set at 40 psig. air pressure. This application, which lasted 25 seconds, was sufficient to wet the plants to run-off. As a control, 100-110 milliliters of a water-acetone-emulsifier solution containing no test compound were also sprayed on infested plants. After spraying, the pots were placed on their sides on a sheet of white standard mimeograph paper which had been previously ruled to facilitate counting. Temperature and humidity in the test room during the 24 hour holding period were 65°-70° F. and 50-70 percent, respectively. Aphids which fell onto the paper and were unable to remain standing after being uprighted were considered dead. Aphis remaining on the plants were observed closely for movement and those which were unable to move the length of the body upon stimulation by prodding were considered dead. Percent mortality was recorded for various concentration levels.
as §2, §3, §4

[5] = system: Mexican bean beetle (Epilachna varivestis, Muls.); assay: Mexican Bean Beetle Leaf Spray Test; settings: read-out: Mexican Bean Beetle LD50
Method: as §1
Mexican Bean Beetle Leaf Spray Test
Fourth instar larvae of the Mexican bean beetle Epilachna varivestis, Muls.), reared on Tendergreen bean plants at a temperature of 80°±5° F. and 50±5 percent relative humidity, were the test insects.
The test compounds were formulated by diluting the stock suspension with water to give a suspension containing 500 parts of test compound per million parts of final formulation. Potted Tendergreen bean plants of standard height and age were placed on a revolving turntable and sprayed with 100-110 milliliters of test compound formulation by use of a DeVilbiss spray gun set at 10 psig air pressure. This application, which lasted 25 seconds, was sufficient to wet plants to run-off. As a control, 100-110 milliliters of a water-acetone-emulsifier solution containing no test compound were also sprayed on infested plants. When dry, the paired leaves were separated and each was placed in a 9 centimeter Petri dish lined with moistened filter paper. Five randomly selected larvae were introduced into each dish, and the dishes were closed. The closed dishes were labeled and held at a temperature of 80°±5° F. for three days. Although the larvae could easily consume the leaf within 24 to 48 hours, no more food was added. Larvae which were unable to move the length of the body, even upon stimulation, were considered dead.
as §2, §3, §4

rat = assay: peroral toxicity to mammals (rat LD50); settings: for times less toxic to mammals than compound 1: rat LD50 relative to compound 1; for times less toxic to mammals than compound 2: rat LD50 relative to compound 2
Method: as §5, §4

[6] = concentration required for a 50% kill, comparative test
[7] = comparative test, read-out: Rat LD50 (Table II)
[8] = peroral, mortality rate of 50 percent, read-out: Rat LD50 (Table I)

| Structure (SMILES) | LC50 [1, 6] [µg/mL] | LD50 [2, 7] [mg/kg] | LC50 [3, 6] [µg/mL] | LC50 [4, 6] [µg/mL] | LC50 [5, 6] [µg/mL] | LC50 [1] [µg/mL] | LC50 [3] [µg/mL] | LC50 [4] [µg/mL] | LC50 [5] [µg/mL] | LD50 [2, 8] [mg/kg] | times less toxic to mammals than compound 1 (rat) | times less toxic to mammals than compound 2 (rat) | times less toxic to mammals as compound 2 (first of the two statements for compound 4) (rat; rat LD50, printed relative to compound 2) |
| --- | --- | --- | --- | --- | --- | --- | --- | --- | --- | --- | --- | --- | --- |
| CNC(=O)Oc1cccc2c1OC(C)(C)C2 [Compound 1, 2,3-dihydro-2,2-dimethyl-7-benzofuranyl methyl carbamate, reference compound] | 12 (≈ 54.2 µM) | 5 | 90 (≈ 407 µM) | 2 (≈ 9.04 µM) | 12 (≈ 54.2 µM) | – | – | – | – | – | – | – | – |
| CN(SN(C)C(=O)Oc1cccc2c1OC(C)(C)C2)C(=O)Oc1cccc2c1OC(C)(C)C2 [Compound 2, reference compound] | – | 6.3 | – | – | – | 30 (≈ 63.5 µM) | 13 (≈ 27.5 µM) | 1 (≈ 2.12 µM) | 2 (≈ 4.23 µM) | – | – | – | – |
| CC(C)c1cccc(OC(=O)N(C)SN(C)C(=O)Oc2cccc3c2OC(C)(C)C3)c1 [Compound 3, [2,2-Dimethyl-2,3-dihydro-7-benzofuranyl methylcarbamate]N-[3-isopropylphenyl methylcarbamate]sulfide] | – | 80 | – | – | – | 22 (≈ 49.5 µM) | 20 (≈ 45 µM) | 1 (≈ 2.25 µM) | 3 (≈ 6.75 µM) | 80 | at least 16 times | at least 13 times | – |
| CN(SN(C)C(=O)Oc1cccc2c1OC(C)(C)C2)C(=O)Oc1ccc(C(C)(C)C)cc1 [Compound 4, [2,2-Dimethyl-2,3-dihydro-7-benzofuranyl methylcarbamate]N-[4-t-butylphenylmethylcarbamate]sulfide] | – | 45 | – | – | – | 17 (≈ 37.1 µM) | 23 (≈ 50.2 µM) | 2 (≈ 4.36 µM) | 18 (≈ 39.3 µM) | 45 | – | seven | nine |
| CN(SN(C)C(=O)Oc1cccc2c1OC(C)(C)C2)C(=O)Oc1ccc([N+](=O)[O-])cc1 [Compound 5] | – | 25.2 | – | – | – | 45 (≈ 101 µM) | 20 (≈ 44.7 µM) | 2 (≈ 4.47 µM) | 4 (≈ 8.94 µM) | – | five | four | – |
| CN(SN(C)C(=O)Oc1cccc2c1OC(C)(C)C2)C(=O)Oc1ccc([N+](=O)[O-])cc1 [[2,2-Dimethyl-2,3-dihydro-7-benzofuranyl methylcarbamate]N-(4-nitrophenyl methylcarbamate]sulfide] | – | – | – | – | – | – | – | – | – | 25 | – | – | – |
| CSc1ccc(OC(=O)N(C)SN(C)C(=O)Oc2cccc3c2OC(C)(C)C3)cc1C [[2,2-Dimethyl-2,3-dihydro-7-benzofuranylmethylcarbamate]N-[3-methyl-4-methylthiophenyl methylcarbamate]sulfide] | – | – | – | – | – | – | – | – | – | 18 | – | – | – |
